Assay results reported in patent publication US11584744B2 (UNIVERSITY OF WASHINGTON, priority 2017, dated 2023).
Values after ≈ are worked out from the molar mass of the structure shown. Values joined by “and” are separate entries in the source; they are usually repeats but may differ in a detail not shown here. Equal values may be shown once. Read-outs that look alike come from different tables or passages of the source.

Assays:
C. parvum = C. parvum growth inhibition; assay type: cell-based, Cryptosporidium parvum; conditions: read-out: (J) C. parvum EC50
MetRS (T. brucei) = target: T1, MetRS (T. brucei) (Trypanosoma brucei brucei, UniProt Q38C91); test: MetRS (T. brucei) enzyme inhibition; assay type: biochemical
T1 sequence (Q38C91 1-773): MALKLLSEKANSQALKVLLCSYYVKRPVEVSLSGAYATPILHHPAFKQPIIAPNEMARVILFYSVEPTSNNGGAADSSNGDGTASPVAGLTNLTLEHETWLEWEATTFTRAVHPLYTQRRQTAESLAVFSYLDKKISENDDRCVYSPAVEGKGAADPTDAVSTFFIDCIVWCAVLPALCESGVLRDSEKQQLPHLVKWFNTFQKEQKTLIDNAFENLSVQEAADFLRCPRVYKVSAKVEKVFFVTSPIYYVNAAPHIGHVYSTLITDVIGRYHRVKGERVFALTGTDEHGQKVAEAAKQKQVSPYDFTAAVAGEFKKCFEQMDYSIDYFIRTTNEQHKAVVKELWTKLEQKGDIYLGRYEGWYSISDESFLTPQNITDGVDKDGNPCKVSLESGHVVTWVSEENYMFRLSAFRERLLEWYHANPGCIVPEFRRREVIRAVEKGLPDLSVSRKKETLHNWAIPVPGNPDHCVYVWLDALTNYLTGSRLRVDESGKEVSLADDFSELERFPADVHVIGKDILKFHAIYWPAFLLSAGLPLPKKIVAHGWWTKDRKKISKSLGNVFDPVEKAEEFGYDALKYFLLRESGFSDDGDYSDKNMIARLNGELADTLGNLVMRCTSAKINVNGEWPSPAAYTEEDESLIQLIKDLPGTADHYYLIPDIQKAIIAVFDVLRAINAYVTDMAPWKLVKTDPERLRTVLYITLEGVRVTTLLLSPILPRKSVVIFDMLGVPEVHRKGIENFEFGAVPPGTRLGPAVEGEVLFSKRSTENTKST

T. brucei = T. brucei growth inhibition; assay type: cell-based, Trypanosoma brucei; conditions: read-out: (D) T. brucei EC50
MetRS (C. parvum) = MetRS (C. parvum) (Cryptosporidium parvum, UniProt Q5CVN0); test: MetRS (C. parvum) enzyme inhibition; assay type: biochemical
Chain of MetRS (C. parvum) (Q5CVN0 entry or part of it): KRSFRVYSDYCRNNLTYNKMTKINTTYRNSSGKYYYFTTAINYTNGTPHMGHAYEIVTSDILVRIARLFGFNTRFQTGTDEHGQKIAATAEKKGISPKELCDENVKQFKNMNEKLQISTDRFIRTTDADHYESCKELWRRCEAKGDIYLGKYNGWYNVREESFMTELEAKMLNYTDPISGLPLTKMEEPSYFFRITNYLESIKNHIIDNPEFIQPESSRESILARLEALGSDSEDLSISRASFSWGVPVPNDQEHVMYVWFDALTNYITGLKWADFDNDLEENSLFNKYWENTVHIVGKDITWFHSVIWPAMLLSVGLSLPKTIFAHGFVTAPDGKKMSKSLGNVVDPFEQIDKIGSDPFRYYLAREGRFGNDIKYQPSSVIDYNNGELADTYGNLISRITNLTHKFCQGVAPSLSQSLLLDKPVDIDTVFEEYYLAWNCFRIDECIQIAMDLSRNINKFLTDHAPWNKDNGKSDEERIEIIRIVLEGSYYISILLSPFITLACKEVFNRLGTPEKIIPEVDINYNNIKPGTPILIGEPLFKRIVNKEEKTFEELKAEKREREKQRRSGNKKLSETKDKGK

T. cruzi = T. cruzi growth inhibition; assay type: cell-based, Trypanosoma cruzi; conditions: read-out: (E) T. cruzi EC50
[1] = system: S. aureus MSSA (ATCC 29213); test: MIC susceptibility testing; assay type: cell-based, Staphylococcus aureus; conditions: Staphylococcus aureus, S. aureus ATCC 29213; read-out: (F) S. aureus (ATCC 29213) MIC
Source text: (§1) Media and culture conditions. Mueller Hinton broth (MHB), cation adjusted Mueller Hinton broth (CA-MHB), and Brain Heart Infusion broth (BHI) were purchased from Becton Dickinson (Franklin Lakes, N.J.). Tryptic soy agar (TSA) plates, TSA with 5% sheep blood plates, and CA-MHB with 3% laked horse blood were purchased from Remel (San Diego, Calif.). MHB was used to assay all Staphylococcus aureus strains. CA-MHB was used for Staphylococcus epidermidis, Enterococcus faecalis, Enterococcus faecium, Escherichia coli, and Pseudomonas aeruginosa. CA-MHB supplemented with 3% laked horse blood was used for Streptococcus pneumoniae and Streptococcus pyogenes. Staphylococcus, Enterococcus, Escherichia, and Pseudomonas strains were cultured at 37° C. with ambient air. Streptococcus strains were cultured in 37° C. with 5% CO2. Separate conditions for radiolabeled precursor uptake assays are described below.
(§2) Susceptibility testing: Minimum inhibitory concentration (MIC) determinations were performed in triplicate in 96-well round bottom microtiter plates (Corning, Corning N.Y.) as described by the Clinical and Laboratory Standards Institute (CLSI). Serial two-fold dilutions of compounds were added to plates in 50 μL volumes. An additional 50 μL of media containing bacterial cells (1×10^6 CFUs/mL) was then added to each well. Maximum DMSO concentrations were 0.5%. Plates were incubated at 37° C. for at least 18 h before reading the susceptibility result by optical absorbance (OD600) using a BioTek ELx800. The lowest concentration causing ≥90% growth inhibition compared to the untreated control was recorded as the MIC (and also corresponded to the visual MIC). MICs were measured at least twice and the higher value (if different) was recorded herein.

[2] = system: S. aureus MRSA (ATCC 33591); test: MIC susceptibility testing; assay type: cell-based, Staphylococcus aureus; conditions: Staphylococcus aureus, MRSA ATCC33591; read-out: (G) MRSA (ATCC33591) MIC
Source text: as §1, §2

[3] = read-out: (C) MetRS (C. parvum) IC50

Row | SMILES | EC50 (C. parvum; Cryptosporidium parvum) [nM] | IC50 (MetRS (T. brucei)) | EC50 (T. brucei; Trypanosoma brucei) [nM] | IC50 (MetRS (C. parvum)) [nM] | EC50 (T. cruzi; Trypanosoma cruzi) [nM] | IC50 (MetRS (C. parvum); [3]) [nM] | MIC [1] [µg/mL] | MIC [2] [µg/mL] | EC50 (T. brucei) [nM] | EC50 (C. parvum) [nM] | EC50 (T. cruzi) [nM]
1 | Clc1ccc(Cc2cn(Cc3nc4cc(Cl)ccc4[nH]3)cn2)c(Cl)c1 [Compound 2192, 6-chlor0-2-({4-[(2,4-dichlorophenyl)-methyl]-1H-imidazol-1-yl}methyl)-1H-1,3-benzodiazole] | > 2000 | < 40 nM | 85.2 | 114 | 516 |  |  |  |  |  | 
2 | NCCn1c(Cc2ccc(Cl)cc2Cl)cn(Cc2nc3ccc(Cl)nc3[nH]2)c1=O [Compound 2214, 3-(2-aminoethyl)-1-((5-chloro-3H-imidazo[4,5-b]pyridin-2-yl)methyl)-4-(2,4-dichlorobenzyl)-1,3-dihydro-2H-imidazol-2-one] | > 2000 | < 40 nM | 3.73 |  | 367 | 74.5 | > 2.5 |  |  |  | 
3 | COc1ccc(-c2ccc(NC(C)=O)c3nc(Cc4nc5nc(F)ccc5[nH]4)cn23)c(Cl)c1 [Compound 2183, N-[5-(2-chloro-4-methoxyphenyl)-2-({5-fluoro-1H-imidazo[4,5-b]pyridin-2-yl}methyl)imidazo[1,2-a]pyridin-8-yl]acetamide] | 629 | < 40 nM |  |  | 116 | < 40 | 0.245 (≈ 0.527 µM) |  |  |  | 
4 | COc1ccc(-c2cccc3c2CN(Cc2nc4nc(C(F)(F)F)nc(N)c4[nH]2)C3=O)c(Cl)c1 [Compound 2252, 2-((6-amin0-2-(trifluoromethyl)-7H-purin-8-yl)methyl)-4-(2-chloro-4-methoxyphenyl)isoindolin-1-one] |  |  | 268 |  | 630 | 431 |  | > 2 |  |  | 
5 | O=C(O)Cn1c(C(=O)c2ccc(Cl)cc2Cl)cn(Cc2nc3ccc(Cl)nc3[nH]2)c1=O [Compound 2216, 2-[3-({5-chloro-1H-imidazo[4,5-b]pyridin-2-yl}methyl)-5-(2,4-dichlorobenzoyl)-2-oxo-2,3-dihydro-1H-imidazol-1-yl]acetic acid] | > 2000 | < 40 nM | 287 |  | > 5000 | 53.2 |  |  |  |  | 
6 | COc1ccc(-c2ccc(N)c3nc(Cc4nc5nc(Cl)ccc5[nH]4)cn23)c(Cl)c1 [Compound 2171, 2-({5-chloro-1H-imidazo[4,5-b]pyridin-2-yl}methyl)-5-(2-chloro-4-methoxyphenyl)imidazo[1,2-a]pyridin-8-amine] |  | < 40 nM | 29 |  | 302 | 75.3 | 1.16 (≈ 2.64 µM) | 1.87 (≈ 4.26 µM) |  |  | 
7 | O=c1n(Cc2nc3c(F)c(F)ccc3[nH]2)cc(Cc2ccc(Cl)cc2Cl)n1CC1CCNCC1(F)F (stereo not drawn) [Compound 2264, 5-(2,4-dichlorobenzyl)-3-((4,5-difluoro-1H-benzo[d]imidazol-2-yl)methyl)-1-((3,3-difluoropiperidin-4-yl)methyl)-1H-imidazol-2(3H)-one] | > 2000 |  | 39.9 |  | 133 |  | 1.22 (≈ 2.25 µM) |  | 73.1 |  | 
8 | CCn1c(Cc2ccc(Cl)cc2Cl)cn(Cc2nc3ccc(F)c(F)c3[nH]2)c1=O [Compound 2262, 4-[(2,4-dichlorophenyl)methyl]-1-[(6,7-difluoro-1H-1,3-benzodiazol-2-yl)methyl]-3-ethyl-2,3-dihydro-1H-imidazol-2-one] | 1500 |  | 18.9 |  | 126 |  | 0.557 (≈ 1.27 µM) |  | 25.6 |  | 
9 | COc1ccc(Cc2cn(Cc3nc4nc(Cl)ccc4[nH]3)c(=O)n2CC(F)F)c(Cl)c1 [Compound 2258, 1-({5-chloro-1H-imidazo[4,5-b]pyridin-2-yl}methyl)-4-[(2-chloro-4-methoxyphenyl)methyl]-3-(2,2-difluoroethyl)-2,3-dihydro-1H-imidazol-2-one] | 188 |  | < 0.91 |  | 5.39 |  | 0.415 (≈ 0.886 µM) |  | 1.35 | 193 | 5.96
10 | COc1ccc(-c2nccn3c(=O)n(Cc4nc5c(Cl)c(Cl)ccc5[nH]4)cc23)c(Cl)c1 [Compound 2254, 8-(2-chloro-4-methoxyphenyl)-2-[(6,7-dichloro-1H-1,3-benzodiazol-2-yl)methyl]-2H,3H-imidazo[1,5-a]pyrazin-3-one] |  |  | 168 |  |  | 138 |  | > 2 |  |  | 
11 | O=c1n(Cc2nc3nc(F)ccc3[nH]2)cc(Cc2ccc(Cl)cc2Cl)n1CCO [Compound 2086, 4-[(2,4-dichlorophenyl)-methyl]-1-({5-fluoro-1H-imidazo[4,5-b]pyridin-2-yl}methyl)-3-(2-hydroxyethyl)-2,3-dihydro-1H-imidazol-2-one] |  | < 40 nM | 5.94 |  | 552 | 41.2 | 0.964 (≈ 2.21 µM) | > 2.5 | 7.64 |  | 
12 | COc1ccc(Cc2cn(Cc3nc4nc(Cl)ccc4[nH]3)c(=O)n2CC(C)(C)NC(C)=O)c(Cl)c1 [Compound 2209, N-{1-[3-({5-chloro-1H-imidazo[4,5-b]pyridin-2-yl}methyl)-5-[(2-chloro-4-methoxyphenyl)methyl]-2-oxo-2,3-dihydro-1H-imidazol-1-yl]-2-methylpropan-2-yl}acetamide] | > 2000 | 380 nM and 781 nM |  |  | 4620 |  |  |  |  |  | 
13 | C#CCn1c(Cc2ccc(Cl)cc2Cl)cn(Cc2nc3ccc(F)nc3[nH]2)c1=O [Compound 2085, 4-[(2,4-dichlorophenyl)methyl]-1-({5-fluoro-1H-imidazo[4,5-b]pyridin-2-yl}methyl)-3-(prop-2-yn-1-yl)-2,3-dihydro-1H-imidazol-2-one] | 834 | < 40 nM | 4.56 |  | 514 | < 40 | 1.71 (≈ 3.97 µM) |  | 9.03 | 683 | 
14 | COc1ccc(-c2cnn3c2CN(Cc2nc4nc(F)ccc4[nH]2)CC3)c(Cl)c1 [Compound 2170, 2-((3-(2-chloro-4-methoxyphenyl)-6,7-dihydropyrazolo[1,5-a]pyrazin-5(4H)-yl)methyl)-5-fluoro-1H-imidazo[4,5-b]pyridine] | 1780 | < 40 nM | 64.5 |  | 1330 | < 40 |  |  |  |  | 
15 | O=c1n(Cc2nc3ccc(F)nc3[nH]2)cc(Cc2ccc(Cl)cc2Cl)n1C1CCCCC1 [Compound 2071, 3-cyclohexyl-4-[(2,4-dichlorophenyl)methyl]-1-({5-fluoro-1H-imidazo[4,5-b]pyridin-2-yl}methyl)-2,3-dihydro-1H-imidazol-2-one] | > 2000 | < 40 nM |  |  | 526 | < 40 | > 2.5 |  |  |  | 
16 | COc1ccc(Cc2cn(Cc3nc4nc(Br)ccc4[nH]3)c(=O)n2CC(F)F)c(Cl)c1 [Compound 2257, 1-({5-bromo-1H-imidazo[4,5-b]pyridin-2-yl}methyl)-4-[(2-chloro-4-methoxyphenyl)methyl]-3-(2,2-difluoroethyl)-2,3-dihydro-1H-imidazol-2-one] | 310 |  |  |  | 8.03 |  |  | 0.876 (≈ 1.71 µM) |  | 219 | 8.17
